Experimental data: patent US20130143866A1, “ANTICANCER COMBINATION TREATMENTS” (priority 2011, published 2013)

Legend:
+SA mammary tumor cells = experiment: HGF-dependent +SA mammary tumor cell growth, viable cell number by MTT colorimetric assay; format: cell-based, mice; conditions: for HGF-dependent +SA cell growth: vs vehicle-treated control; for +SA tumor cell growth: summary statement, HGF-dependent, in a dose-responsive manner
Method: +SA mammary tumor cells were used for the examples presented herein. […] In addition, +SA cells can form adenocarcinomas that metastasize to the lungs when injected into the mammary gland fat pad of syngeneic female mice. +SA cells were maintained in serum-free defined media containing 10 ng/mL Hepatocyte growth factor (HGF) as the mitogen, Dulbecco's Modified Eagle's Medium (DMEM)/F12 supplemented with 5 mg/mL bovine serum albumin (BSA), 10 μg/mL transferrin, 100 U/mL soybean trypsin inhibitor, 100 U/mL penicillin, 0.1 mg/mL streptomycin and 10 μg/mL insulin at 37° C. in an environment of 95% air and 5% CO2 in humidified incubator. For subculturing, cells were rinsed with sterile Ca^2+ and Mg^2+-free phosphate buffered saline (PBS) and incubated with 0.05% trypsin containing 0.025% EDTA in PBS for 5 min at 37° C. The released cells were centrifuged, resuspended in serum-free media and counted using hemocytometer.
γ-tocotrienol was prepared for the tests of this example by suspending it in a solution of sterile 10% BSA. An appropriate amount of γ-tocotrienol was dissolved in 100 μL of absolute ethyl alcohol and then added to a small volume of sterile 10% BSA in water and incubated overnight at 37° C. This stock solution was used to prepare various concentrations of the treatment media. Ethanol was added to all treatment groups in a given experiment such that the final concentration of ethanol never exceeded 0.1%. Stock solution of the Met inhibitor, SU11274 was prepared in DMSO and DMSO was added to all treatment media such that the final concentration was same in all treatment groups and never exceeded a concentration of 0.1%.
+SA cells were initially seeded at a density of 5×10^4 cells/well (6 replicates/group) in 24-well plates in serum-free defined media containing 10 ng/mL HGF as mitogen and allowed to attach overnight. For growth studies, +SA cells were maintained in serum-free defined media containing various doses of HGF over a 3-day culture period. In the antiproliferative experiments, cells were exposed to respective experimental treatments containing various concentrations of SU11274 or γ-tocotrienol alone or in combination for three days. On the fourth day, cells were divided into different treatment groups and treated with various concentrations of SU11274 or γ-tocotrienol alone or in combination for 24 hours. At the end of the treatment exposure period, the viable +SA cell number was determined by 3-(4,5-dimethylthiazol-2yl)-2,5-diphenyl tetrazolium bromide (MTT) colorimetric assay. Control and treatment media in various treatment groups in 24-well plates were replaced with fresh media containing 0.41 mg/ml MTT. After 4-h incubation period, the media was removed and MTT crystals were dissolved in isopropanol (1 ml/well), and the optical density of each sample was measured at 570 nm on a microplate reader (SpectraCount, Packard BioScience Company). The number of cells/well was calculated against a standard curve prepared by plating various concentrations of cells, as determined by hemocytometer, at the beginning of each experiment.
Vertical bars indicate mean viable cell number±SEM for six replicates in each treatment group. Differences among various treatment groups in +SA cell growth studies were determined by the analysis of variance (ANOVA) followed by Dunnett's t test. A difference of P<0.05 was considered statistically significant as compared to the vehicle-treated control.
Effects of various doses of SU11274, a specific Met Receptor Tyrosine Kinase inhibitor, or γ-tocotrienol on HGF-dependent +SA mammary tumor cell growth after a 3-day culture period are shown in FIG. 2. […] In the present example, +SA cells were initially plated at a density of 5×10^4 cells/well (6 replicates/group) in 24-well plates and exposed to various doses of SU11274 or γ-tocotrienol in the presence of 10 ng/mL HGF throughout a 3-day culture period. Viable cell number was determined using the MTT colorimetric assay. […]

Met = molecular target: T1, Met (Mus musculus, UniProt P16056); experiment: Western blot analysis of total and phosphorylated (active) Met levels in HGF-stimulated +SA cells; format: cell-based, mice; conditions: for HGF-dependent Met tyrosine phosphorylation: summary statement, in a dose-responsive manner
T1 construct: whole cell lysates were prepared and then subjected to polyacrylamide gel electrophoresis and Western blot analysis for total and phosphorylated Met levels; endogenous in cells; host or cells: +SA mammary tumor cells
Method: For Western blot analysis, +SA cells were initially plated at a density of 1×10^6 cells/100-mm culture dish, allowed to attach overnight and then incubated in the respective control or treatment media. At the end of treatment period, cells were isolated with trypsin, washed with PBS, and then whole cell lysates were prepared in a Laemmle buffer. Protein concentration in each sample was determined using a protein assay kit (Bio-Rad protein assay kit, Bio Rad, Hercules, Calif., USA). Equal amount of protein (30-50 μg/lane) of each sample was subjected to electrophoresis through 7.5%-15% SDS-polyacrylamide minigels. Minigels within a given treatment were run simultaneously using AccuPower model 500 power supply unit (VWR, Suwanee, Ga., USA). Each gel was then equilibrated in transfer buffer and transblotted at 30 V for 12-16 hours at 4° C. onto a polyvinylidene fluoride (PVDF) membrane (PerkinElmer Lifesciences, Wellesley, Mass., USA) in a Trans-Blot Cell (Bio-Rad Laboratories, Hercules, Calif.) according to the method of Towbin. These PVDF membranes were then blocked with 2% BSA in 10 mM Tris-HCl containing 50 mM NaCl and 0.1% Tween 20, pH 7.4 (TBST) and then, incubated with specific primary antibodies against Met, phospho-Met, cleaved caspase-3, cleaved PARP, and α-tubulin diluted 1:1000 to 1:5000 in 2% BSA in TBST for 2 hours at room temperature or overnight at 4° C. Membranes were then washed 5 times with TBST and incubated with respective horseradish […]-conjugated secondary antibody diluted 1:3000 to 1:5000 in 2% BSA in TBST for 1 hour at room temperature followed by rinsing with TBST for 5 times. Blots were then visualized by chemiluminescence. (Pierce, Rockford, Ill., USA). Images of protein bands from all treatment groups within a given experiment were acquired using Kodak Gel Logic 1500 Imaging System (Carestream Health Inc, New Haven, Conn., USA). The visualization of α-tubulin was used to ensure equal sample loading in each lane.
+SA cells were plated at a density of 1×10^6 cells/100 mm culture dish. Cells were then incubated with serum-free media containing vehicle (control), 5.5 μM SU11274 or 4 μM γ-tocotrienol and 10 ng/mL HGF as the mitogen for a 3-day culture period. Following treatment exposure, cells were incubated in mitogen-free media overnight. Afterwards, cells were stimulated with 100 ng/mL HGF for 30 min Cells incubated in mitogen-free media were used as untreated controls. Following mitogen exposure, whole cell lysates were prepared and then subjected to polyacrylamide gel electrophoresis and Western blot analysis for total and phosphorylated Met levels. α-Tubulin was visualized to ensure equal sample loading in each lane. Each Western blot is a representative image of the data obtained for experiments that were repeated at least three times.
The +SA cells were plated at a density of 1×10^6 cells/100 mm culture dish. Cells were then incubated with serum-free media containing vehicle (control) or 4 μM γ-tocotrienol, and 10 ng/mL HGF as a mitogen. Cells were collected at various times during the next 72-h period. Following treatment exposure at each time point, cells were incubated in mitogen-free media overnight. Afterwards, cells were stimulated with 100 ng/mL HGF for 30 min Cells incubated with mitogen-free media were used as untreated controls. Following mitogen exposure, whole cell lysates were prepared and then subjected to polyacrylamide gel electrophoresis and Western blot analysis for total and phosphorylated (active) Met receptor levels. α-Tubulin was visualized to ensure equal sample loading in each lane. Western blots presented in FIG. 4 are representative of the data obtained for experiments that were repeated at least three times.
Cells were then incubated with serum-free media containing vehicle (control), 3 μM SU11274, 2 μM γ-tocotrienol or the combination of 3 μM SU11274 and 2 μM γ-tocotrienol, and 10 ng/mL HGF as a mitogen for a 3-day culture period. […]

[1] = 4 μM γ-tocotrienol, 10 ng/mL HGF, time course over 72 h, vs vehicle-treated control
[2] = 5.5 μM SU11274, 3-day culture, then 100 ng/mL HGF for 30 min, vs vehicle-treated control

T1 sequence (P16056 25-1379): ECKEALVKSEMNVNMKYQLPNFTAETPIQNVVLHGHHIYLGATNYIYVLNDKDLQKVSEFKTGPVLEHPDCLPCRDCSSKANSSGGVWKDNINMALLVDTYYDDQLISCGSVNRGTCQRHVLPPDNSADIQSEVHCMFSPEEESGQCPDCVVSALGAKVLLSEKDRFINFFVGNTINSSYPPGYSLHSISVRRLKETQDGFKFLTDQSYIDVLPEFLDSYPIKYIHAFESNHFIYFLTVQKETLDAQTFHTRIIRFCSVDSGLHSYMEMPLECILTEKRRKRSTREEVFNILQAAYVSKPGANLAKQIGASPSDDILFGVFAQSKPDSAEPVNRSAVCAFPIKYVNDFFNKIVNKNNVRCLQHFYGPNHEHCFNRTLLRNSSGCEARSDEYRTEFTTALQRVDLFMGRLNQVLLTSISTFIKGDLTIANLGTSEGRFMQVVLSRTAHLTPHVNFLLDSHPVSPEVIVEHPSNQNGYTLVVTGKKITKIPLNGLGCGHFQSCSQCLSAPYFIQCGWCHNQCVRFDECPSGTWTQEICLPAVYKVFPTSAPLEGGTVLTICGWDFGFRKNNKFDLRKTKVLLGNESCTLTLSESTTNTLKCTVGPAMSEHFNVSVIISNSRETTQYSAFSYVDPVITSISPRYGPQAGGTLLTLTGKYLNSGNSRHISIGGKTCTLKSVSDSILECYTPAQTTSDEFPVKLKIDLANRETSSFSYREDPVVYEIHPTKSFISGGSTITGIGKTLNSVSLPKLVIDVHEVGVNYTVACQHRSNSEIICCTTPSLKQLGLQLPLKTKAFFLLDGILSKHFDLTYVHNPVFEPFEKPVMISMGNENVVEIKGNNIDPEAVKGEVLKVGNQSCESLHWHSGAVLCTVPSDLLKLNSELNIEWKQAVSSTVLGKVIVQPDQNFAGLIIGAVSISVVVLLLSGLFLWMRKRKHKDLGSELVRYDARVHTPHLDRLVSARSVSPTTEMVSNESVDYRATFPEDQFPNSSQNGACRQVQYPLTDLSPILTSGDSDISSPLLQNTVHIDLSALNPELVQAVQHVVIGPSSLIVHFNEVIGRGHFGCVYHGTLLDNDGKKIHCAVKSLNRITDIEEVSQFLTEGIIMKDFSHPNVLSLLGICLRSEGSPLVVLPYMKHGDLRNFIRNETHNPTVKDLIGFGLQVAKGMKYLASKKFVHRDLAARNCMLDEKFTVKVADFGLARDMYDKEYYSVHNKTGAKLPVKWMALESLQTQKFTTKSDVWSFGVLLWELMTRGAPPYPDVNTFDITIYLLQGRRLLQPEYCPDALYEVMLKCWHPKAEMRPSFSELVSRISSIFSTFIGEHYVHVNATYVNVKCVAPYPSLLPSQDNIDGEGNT

Row | Molecule | HGF-dependent +SA cell growth (+SA mammary tumor cells; 4 μM γ-tocotrienol, 10 ng/mL HGF, 3-day culture, P<0.05) | HGF-dependent +SA cell growth (+SA mammary tumor cells; subeffective dose 2 μM γ-tocotrienol alone, 10 ng/mL HGF, 3-day culture) | +SA tumor cell growth (+SA mammary tumor cells) | culture exposure time at which reduction in total levels of Met protein was maximal (Met; [1]) [days] | treatment exposure time at which reduction in total levels of Met protein started (Met; [1]) [h] | level of total Met protein (Met; 4 μM γ-tocotrienol, 3-day culture, then 100 ng/mL HGF for 30 min) | HGF-induced Met phosphorylation (Met; 4 μM γ-tocotrienol, 3-day culture, then 100 ng/mL HGF for 30 min, mirrors loss of Met expression) | HGF-dependent Met tyrosine phosphorylation (Met) | HGF-dependent +SA cell growth (+SA mammary tumor cells; 4.5-5.5 μM SU11274, 10 ng/mL HGF, 3-day culture, P<0.05) | HGF-dependent +SA cell growth (+SA mammary tumor cells; subeffective dose 3 μM SU11274 alone, 10 ng/mL HGF, 3-day culture) | HGF-dependent Met tyrosine phosphorylation (activation) (Met; [2]) | total intracellular levels of Met receptors (Met; [2]) | growth of neoplastic +SA mammary epithelial cells (viable cell number) (+SA mammary tumor cells; stimulation with 1-10 ng/mL HGF, 3-day culture, dose-responsive, vs mitogen-free control media, P<0.05)
1 | CC(C)=CCC/C(C)=C/CC/C(C)=C/CC[C@]1(C)CCc2cc(O)c(C)c(C)c2O1 [γ-tocotrienol] | significantly inhibited | no effect | inhibited | 3 | 24 | significant reduction | loss | inhibited | – | – | – | – | –
2 | Cc1[nH]c(/C=C2\C(=O)Nc3ccc(S(=O)(=O)N(C)c4cccc(Cl)c4)cc32)c(C)c1C(=O)N1CCN(C)CC1 [SU11274, reference compound] | – | – | inhibited | – | – | – | – | inhibited | significantly inhibited | no effect | large relative reduction | no effect | –
3 | HGF: Hepatocyte growth factor (HGF), the mitogen, purchased from PeproTech Inc. | – | – | – | – | – | – | – | – | – | – | – | – | significantly increased
